Patent publication US4450269A, “Mono-5-substituted-3-chloro-4H-1,2,6-thiadiazin-4-one antifungal agents” (FMC Corporation, priority 1980, dated 1984)
Like-named read-outs stand apart in the source and are kept apart here.

Experiments:
Alternaria solani [1] = test: Spore germination test; type: cell-based; conditions: AS, 48 hours
Procedure: (§1) The test chemical was dissolved or suspended in acetone in an amount such that 0.8 ml of the resulting suspension or solution, mixed with 40 ml water agar produced a water agar solution containing 40, 10, 2.5 and 1 ppm of test chemical. The resulting agar solution, at 50° C., was then divided equally between two sterile petri dishes, each having four separated quadrants, and allowed to solidify. […] quadrants of each dish were flooded with 0.1 ml of a spore suspension in sterile water. Spores of two pathogens, Erysiphe polygoni and Uromyes phaseoli, from infected plant leaves, were brushed on the remaining two quadrants. The tests were then incubated 48 hours, at 24° C.
(§2) Readings were then taken and the percentage of germinated spores calculated. From this percentage, a spore germination rating was assigned as follows: […]

Botrytis cinerea = test: Spore germination test; type: cell-based; conditions: BC, 48 hours
Procedure: as §1, §2

Erysiphe polygoni [2] = test: Spore germination test; type: cell-based; conditions: EP, 48 hours
Procedure: as §1, §2

Uromyces phaseoli [3] = test: Spore germination test; type: cell-based; conditions: UP, 48 hours
Procedure: as §1, §2

Pyricularia oryzae [4] = type: cell-based; conditions: PO, 48 hours
Cladosporium cucumerinum [5] = test: Spore germination test; type: cell-based; conditions: CC, 48 hours
Procedure: CC = Cladosporium cucumerinum
as §1, §2

Phytophthora infestans [6] = type: cell-based; conditions: PI, 48 hours
Alternaria solani [7] = test: Mycelial growth test; type: cell-based; conditions: Alternaria solani, 72 h, AS, read-out: Percent Fungus Growth Inhibition
Fusarium solani = test: Mycelial growth test; type: cell-based; conditions: Fusarium solani, 72 h; for inhibition at 5 ppm / inhibition at 10 ppm / inhibition at 20 ppm: PS, 72 hours, read-out: Percent Fungus Growth Inhibition; for inhibition at 40 ppm: read-out: Percent Fungus Growth Inhibition, PS, 40 ppm, 72 hours
Sclerotinia fructicola = test: Mycelial growth test; type: cell-based; conditions: Sclerotinia, 72 h, SF, read-out: Percent Fungus Growth Inhibition
Text: | SF = Sclerotinia fructicola

Pyricularia oryzae [8] = test: microbe, parasite or virus in culture; type: cell-based; conditions: Pyricularia oryzae, 72 h; for inhibition at 5 ppm: read-out: Percent Fungus Growth Inhibition, PO, 5 ppm, 72 hours; for inhibition at 10 ppm: read-out: Percent Fungus Growth Inhibition, PO, 10 ppm, 72 hours; for inhibition at 20 ppm: read-out: Percent Fungus Growth Inhibition, PO, 20 ppm, 72 hours; for inhibition at 40 ppm: read-out: Percent Fungus Growth Inhibition, PO, 40 ppm, 72 hours
Pythium ultimum = test: Mycelial growth test; type: cell-based; conditions: Globisporangium ultimum, 72 h, PU, read-out: Percent Fungus Growth Inhibition
Rhizoctonia solani = test: Mycelial growth test; type: cell-based; conditions: Rhizoctonia solani, 72 h, RS, read-out: Percent Fungus Growth Inhibition
Text: | RS = Rhizoctonia solani

Cladosporium cucumerinum [9] = test: Mycelial growth test; type: cell-based; conditions: Cladosporium cucumerinum, CC, read-out: Percent Fungus Growth Inhibition; for inhibition at 5 ppm / inhibition at 10 ppm / inhibition at 40 ppm: 72 h; for inhibition at 20 ppm: CC20, 72 h
Text: |CC = Cladosporium cucumerinum

Phytophthora infestans [10] = test: whole plant or invertebrate; type: in vivo; conditions: Phytophthora infestans, in Solanum lycopersicum, foliar, read-out: Percent Disease Control, foliar, tomato late blight, 150 ppm, protective
Pyricularia oryzae [11] = test: whole plant or invertebrate; type: in vivo; conditions: Pyricularia oryzae, foliar, 24 h, read-out: Percent Disease Control, curative, rice blast, 150 ppm, 24 hours after inoculation
Helminthosporium oryzae = test: Mycelial growth test; conditions: Bipolaris oryzae, 72 h
Uromyces phaseoli [12] = test: whole plant or invertebrate; conditions: foliar, read-out: Percent Disease Control, foliar, bean rust
Uromyces phaseoli [13] = test: whole plant or invertebrate; conditions: foliar, 24 h, read-out: Percent Disease Control, curative, bean rust
Erysiphe polygoni [14] = test: whole plant or invertebrate; conditions: foliar, 24 h, read-out: Percent Disease Control, curative, bean powdery mildew
Venturia inaequalis = test: Spore germination test; type: cell-based; conditions: VI, 48 hours
Procedure: VI = Venturia inaequalis
as §1, §2

[15] = read-out: Percent Fungus Growth Inhibition

SMILES: O=c1c(Cl)nsnc1Oc1ccc(O)cc1 [Compound 35, 3-chloro-5-(4-hydroxyphenoxy)-4H-1,2,6-thiadiazin-4-one]
- Spore Germination Rating (Alternaria solani [1]; 1.0 ppm): 4 (80-100)
- Spore Germination Rating (Alternaria solani [1]; 2.5 ppm): 4 (80-100)
- Spore Germination Rating (Alternaria solani [1]; 10 ppm): 3 (60-80)
- Spore Germination Rating (Alternaria solani [1]; 40 ppm): 0 (0-10)
- Spore Germination Rating (Botrytis cinerea; 1.0 ppm): 4 (80-100)
- Spore Germination Rating (Botrytis cinerea; 2.5 ppm): 4 (80-100)
- Spore Germination Rating (Botrytis cinerea; 10 ppm): 4 (80-100)
- Spore Germination Rating (Botrytis cinerea; 40 ppm): 3 (60-80)
- Spore Germination Rating (Erysiphe polygoni [2]; 1.0 ppm): 4 (80-100)
- Spore Germination Rating (Erysiphe polygoni [2]; 2.5 ppm): 4 (80-100)
- Spore Germination Rating (Erysiphe polygoni [2]; 10 ppm): 2 (40-60)
- Spore Germination Rating (Erysiphe polygoni [2]; 40 ppm): 1 (10-40)
- Spore Germination Rating (Uromyces phaseoli [3]; 1.0 ppm): 0 (0-10)
- Spore Germination Rating (Uromyces phaseoli [3]; 2.5 ppm): 0 (0-10)
- Spore Germination Rating (Uromyces phaseoli [3]; 10 ppm): 0 (0-10)
- Spore Germination Rating (Uromyces phaseoli [3]; 40 ppm): 0 (0-10)
- Spore Germination Rating (Pyricularia oryzae [4]; 1.0 ppm): 2 (40-60)
- Spore Germination Rating (Pyricularia oryzae [4]; 2.5 ppm): 0 (0-10)
- Spore Germination Rating (Pyricularia oryzae [4]; 10 ppm): 0 (0-10)
- Spore Germination Rating (Pyricularia oryzae [4]; 40 ppm): 0 (0-10)
- Spore Germination Rating (Cladosporium cucumerinum [5]; 1.0 ppm): 4 (80-100)
- Spore Germination Rating (Cladosporium cucumerinum [5]; 2.5 ppm): 0 (0-10)
- Spore Germination Rating (Cladosporium cucumerinum [5]; 10 ppm): 3 (60-80)
- Spore Germination Rating (Cladosporium cucumerinum [5]; 40 ppm): 0 (0-10)
- Spore Germination Rating (Phytophthora infestans [6]; 1.0 ppm): 4 (80-100)
- Spore Germination Rating (Phytophthora infestans [6]; 2.5 ppm): 0 (0-10)
- Spore Germination Rating (Phytophthora infestans [6]; 10 ppm): 0 (0-10)
- Spore Germination Rating (Phytophthora infestans [6]; 40 ppm): 0 (0-10)
- inhibition at 5 ppm (Alternaria solani [7]): 90%
- inhibition at 10 ppm (Alternaria solani [7]): 100%
- inhibition at 20 ppm (Alternaria solani [7]): 100%
- inhibition at 40 ppm (Alternaria solani [7]): 100%
- inhibition at 5 ppm (Fusarium solani): 30%
- inhibition at 10 ppm (Fusarium solani): 35%
- inhibition at 20 ppm (Fusarium solani): 60%
- inhibition at 40 ppm (Fusarium solani): 80%
- inhibition at 5 ppm (Sclerotinia fructicola): 8%
- inhibition at 10 ppm (Sclerotinia fructicola): 27%
- inhibition at 20 ppm (Sclerotinia fructicola): 69%
- inhibition at 40 ppm (Sclerotinia fructicola): 100%
- inhibition at 5 ppm (Pyricularia oryzae [8]): 23%
- inhibition at 10 ppm (Pyricularia oryzae [8]): 38%
- inhibition at 20 ppm (Pyricularia oryzae [8]): 100%
- inhibition at 40 ppm (Pyricularia oryzae [8]): 100%
- inhibition at 5 ppm (Pythium ultimum): 0%
- inhibition at 10 ppm (Pythium ultimum): 11%
- inhibition at 20 ppm (Pythium ultimum): 100%
- inhibition at 40 ppm (Pythium ultimum): 100%
- inhibition at 5 ppm (Rhizoctonia solani): 0%
- inhibition at 10 ppm (Rhizoctonia solani): 7%
- inhibition at 20 ppm (Rhizoctonia solani): 44%
- inhibition at 40 ppm (Rhizoctonia solani): 76%
- inhibition at 5 ppm (Cladosporium cucumerinum [9]): 0%
- inhibition at 10 ppm (Cladosporium cucumerinum [9]): 0%
- inhibition at 40 ppm (Cladosporium cucumerinum [9]): 92%
- inhibition at 20 ppm (Cladosporium cucumerinum [9]): 23%
- pest or weed control at 150 ppm (Phytophthora infestans [10]): 100%
- pest or weed control at 150 ppm (Pyricularia oryzae [11]): 0%
- inhibition at 5 ppm (Helminthosporium oryzae; read-out: Percent Fungus Growth Inhibition, HO, 5 ppm, 72 hours): 83%
- inhibition at 10 ppm (Helminthosporium oryzae; read-out: Percent Fungus Growth Inhibition, HO, 10 ppm, 72 hours): 100%
- inhibition at 20 ppm (Helminthosporium oryzae; read-out: Percent Fungus Growth Inhibition, HO, 20 ppm, 72 hours): 89%
- inhibition at 40 ppm (Helminthosporium oryzae; read-out: Percent Fungus Growth Inhibition, HO, 40 ppm, 72 hours): 100%
- pest or weed control at 150 ppm (Uromyces phaseoli [12]): 100%
- pest or weed control at 150 ppm (Uromyces phaseoli [13]): 0%
- pest or weed control at 150 ppm (Erysiphe polygoni [14]): 0%

SMILES: N#Cc1c(Cl)c(Cl)c(Cl)c(C#N)c1Cl [Chlorothalonil, reference compound]
- inhibition at 5 ppm (Alternaria solani [7]): 44%
- inhibition at 10 ppm (Alternaria solani [7]): 50%
- inhibition at 20 ppm (Alternaria solani [7]): 38%
- inhibition at 40 ppm (Alternaria solani [7]): 75%
- inhibition at 5 ppm (Fusarium solani): 41%
- inhibition at 10 ppm (Fusarium solani): 41%
- inhibition at 20 ppm (Fusarium solani): 76%
- inhibition at 40 ppm (Fusarium solani): 88%
- inhibition at 5 ppm (Sclerotinia fructicola): 67%
- inhibition at 10 ppm (Sclerotinia fructicola): 70%
- inhibition at 20 ppm (Sclerotinia fructicola): 76%
- inhibition at 40 ppm (Sclerotinia fructicola): 82%
- inhibition at 5 ppm (Pyricularia oryzae [8]): 26%
- inhibition at 10 ppm (Pyricularia oryzae [8]): 15%
- inhibition at 20 ppm (Pyricularia oryzae [8]): 41%
- inhibition at 40 ppm (Pyricularia oryzae [8]): 48%
- inhibition at 5 ppm (Pythium ultimum): 0%
- inhibition at 10 ppm (Pythium ultimum): 31%
- inhibition at 20 ppm (Pythium ultimum): 100%
- inhibition at 40 ppm (Pythium ultimum): 100%
- inhibition at 5 ppm (Rhizoctonia solani): 31%
- inhibition at 10 ppm (Rhizoctonia solani): 40%
- inhibition at 20 ppm (Rhizoctonia solani): 53%
- inhibition at 40 ppm (Rhizoctonia solani): 73%
- inhibition at 5 ppm (Cladosporium cucumerinum [9]): 63%
- inhibition at 10 ppm (Cladosporium cucumerinum [9]): 63%
- inhibition at 40 ppm (Cladosporium cucumerinum [9]): 96%
- inhibition at 20 ppm (Cladosporium cucumerinum [9]): 71%
- inhibition at 5 ppm (Helminthosporium oryzae; [15]): 50%
- inhibition at 10 ppm (Helminthosporium oryzae; [15]): 59%
- inhibition at 20 ppm (Helminthosporium oryzae; [15]): 73%
- inhibition at 40 ppm (Helminthosporium oryzae; [15]): 95%

SMILES: O=C1C2CC=CCC2C(=O)N1SC(Cl)(Cl)Cl (stereo not shown) [Captan, reference compound]
- inhibition at 5 ppm (Fusarium solani): 19%
- inhibition at 10 ppm (Fusarium solani): 33%
- inhibition at 20 ppm (Fusarium solani): 48%
- inhibition at 40 ppm (Fusarium solani): 44%
- inhibition at 5 ppm (Pythium ultimum): 0%
- inhibition at 10 ppm (Pythium ultimum): 0%
- inhibition at 20 ppm (Pythium ultimum): 0%
- inhibition at 40 ppm (Pythium ultimum): 0%
- inhibition at 5 ppm (Rhizoctonia solani): 0%
- inhibition at 10 ppm (Rhizoctonia solani): 0%
- inhibition at 20 ppm (Rhizoctonia solani): 0%
- inhibition at 40 ppm (Rhizoctonia solani): 0%
- inhibition at 5 ppm (Helminthosporium oryzae; [15]): 18%
- inhibition at 10 ppm (Helminthosporium oryzae; [15]): 46%
- inhibition at 20 ppm (Helminthosporium oryzae; [15]): 62%
- inhibition at 40 ppm (Helminthosporium oryzae; [15]): 65%

SMILES: CCCCNC(=O)n1c(NC(=O)OC)nc2ccccc21 [Benomyl, reference compound]
- Spore Germination Rating (Alternaria solani [1]; 1.0 ppm): 4 (80-100)
- Spore Germination Rating (Alternaria solani [1]; 2.5 ppm): 4 (80-100)
- Spore Germination Rating (Alternaria solani [1]; 10 ppm): 4 (80-100)
- Spore Germination Rating (Alternaria solani [1]; 40 ppm): 4 (80-100)
- Spore Germination Rating (Botrytis cinerea; 1.0 ppm): 4 (80-100)
- Spore Germination Rating (Botrytis cinerea; 2.5 ppm): 4 (80-100)
- Spore Germination Rating (Botrytis cinerea; 10 ppm): 4 (80-100)
- Spore Germination Rating (Botrytis cinerea; 40 ppm): 4 (80-100)
- Spore Germination Rating (Erysiphe polygoni [2]; 1.0 ppm): 2 (40-60)
- Spore Germination Rating (Erysiphe polygoni [2]; 2.5 ppm): 2 (40-60)
- Spore Germination Rating (Erysiphe polygoni [2]; 10 ppm): 0 (0-10)
- Spore Germination Rating (Erysiphe polygoni [2]; 40 ppm): 0 (0-10)
- Spore Germination Rating (Uromyces phaseoli [3]; 1.0 ppm): 4 (80-100)
- Spore Germination Rating (Uromyces phaseoli [3]; 2.5 ppm): 1 (10-40)
- Spore Germination Rating (Uromyces phaseoli [3]; 10 ppm): 1 (10-40)
- Spore Germination Rating (Uromyces phaseoli [3]; 40 ppm): 0 (0-10)
- Spore Germination Rating (Pyricularia oryzae [4]; 1.0 ppm): 4 (80-100)
- Spore Germination Rating (Pyricularia oryzae [4]; 2.5 ppm): 4 (80-100)
- Spore Germination Rating (Pyricularia oryzae [4]; 10 ppm): 3 (60-80)
- Spore Germination Rating (Pyricularia oryzae [4]; 40 ppm): 0 (0-10)
- Spore Germination Rating (Venturia inaequalis; 1.0 ppm): 3 (60-80)
- Spore Germination Rating (Venturia inaequalis; 2.5 ppm): 3 (60-80)
- Spore Germination Rating (Venturia inaequalis; 10 ppm): 0 (0-10)
- Spore Germination Rating (Venturia inaequalis; 40 ppm): 0 (0-10)
- Spore Germination Rating (Cladosporium cucumerinum [5]; 1.0 ppm): 4 (80-100)
- Spore Germination Rating (Cladosporium cucumerinum [5]; 2.5 ppm): 4 (80-100)
- Spore Germination Rating (Cladosporium cucumerinum [5]; 10 ppm): 3 (60-80)
- Spore Germination Rating (Cladosporium cucumerinum [5]; 40 ppm): 0 (0-10)
- Spore Germination Rating (Phytophthora infestans [6]; 1.0 ppm): 2 (40-60)
- Spore Germination Rating (Phytophthora infestans [6]; 2.5 ppm): 2 (40-60)
- Spore Germination Rating (Phytophthora infestans [6]; 10 ppm): 0 (0-10)
- Spore Germination Rating (Phytophthora infestans [6]; 40 ppm): 1 (10-40)
